pKi: −log10 of the molar value.
The molecules below were run against human H4 receptor (Homo sapiens (Human), UniProt Q9H3N8) (assay: Binding assay on recombinant human histamine H4 receptor ([3H]histamine competition, SK-N-MC cell membranes)). Settings: membranes harvested with 96 well Brandel system; [3H]histamine 10 nM; average of results; read-out: Brandel Ki.
Method in brief: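 Membranes from SK-N-MC cells stably or transiently transfected with human H4 receptor, prepared by homogenization and 30,000 g centrifugation in Tris/EDTA. Bound [3H]histamine separated by rapid filtration on PEI-treated GF/C filters, washed with ice-cold Tris/EDTA, counted by scintillation. '>' values denote highest concentration tested.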

pKi | SMILES
8.32 | CN[C@@H]1CCN(c2cnnc(NC3CCCCC3)c2)C1 [Example 98, N-Cyclohexyl-5-[(3R)-3-(methylamino)pyrrolidin-1-yl]pyridazin-3-amine]

Same assay, conditions: membranes harvested with cell harvester; [3H]histamine 10 nM; average of results; read-out: Cell Harvester Ki

pKi | SMILES
6.20 | C[C@@H](Nc1cc(N2CC[C@@H](N)C2)cnn1)c1ccccc1 [Example 321, 5-[(3R)-3-Aminopyrrolidin-1-yl]-N-[(1R)-1-phenylethyl]pyridazin-3-amine]
5.59 | CNC1CN(c2cnnc(NCc3ccccc3)c2)C1 [Example 330, N-Benzyl-5-[3-(methylamino)azetidin-1-yl]pyridazin-3-amine]
7.34 | CN[C@@H]1CCN(c2ccnc(NCCOC)n2)C1 [Example 82, (2-Methoxy-ethyl)-[4-(3R)-(3-methylamino-pyrrolidin-1-yl)-pyrimidin-2-yl]-amine]
8.92 | CN[C@@H]1CCN(c2ccnc(NC3CC4CCC3C4)n2)C1 (stereo partly drawn) [Example 74, Bicyclo[2.2.1]hept-2-yl-[4-(3R)-(3-methylamino-pyrrolidin-1-yl)-pyrimidin-2-yl]-amine]
7.67 | CNC1CN(c2ccnc(NC3CC3)c2)C1 [Example 281, N-Cyclopropyl-4-[3-(methylamino)azetidin-1-yl]pyridin-2-amine]
7.80 | CNC1CN(c2ccnc(NCCCO)n2)C1 [Example 135, 3-({4-[3-(Methylamino)azetidin-1-yl]pyrimidin-2-yl}amino)propan-1-ol]
< 5.00 | c1ccc(CNc2cc(N3CCNCC3)cnn2)cc1 [Example 348, N-Benzyl-5-piperazin-1-ylpyridazin-3-amine]
8.07 | CNC1CN(c2ccnc(NCC3CCCC3)c2)C1 [Example 275, N-(Cyclopentylmethyl)-4-[3-(methylamino)azetidin-1-yl]pyridin-2-amine]
5.51 | N[C@H]1CCN(c2ccnc(NCc3ccc(F)cc3)c2)C1 [Example 263]
5.81 | CNC1CN(c2ccnc(NCc3ccccn3)c2)C1 [Example 297, 4-[3-(Methylamino)azetidin-1-yl]-N-(pyridin-2-ylmethyl)pyridin-2-amine]
7.37 | CNC1CN(c2ccnc(NC3C[C@H]4C[C@@H](C3C)C4(C)C)c2)C1 (stereo partly drawn) [Example 284, 4-[3-(Methylamino)azetidin-1-yl]-N-[(1S,5R)-2,6,6-trimethylbicyclo[3.1.1]hept-3-yl]pyridin-2-amine]
< 5.00 | COCCNc1cc(N2CC[C@@H](N)C2)cnn1 [Example 298, 5-[(3R)-3-Aminopyrrolidin-1-yl]-N-(2-methoxyethyl)pyridazin-3-amine]
6.94 | CC(C)CNc1cc(N2CC[C@H](N)C2)ccn1 [Example 14, 4-[(3S)-3-Aminopyrrolidin-1-yl]-N-(2-methylpropyl)pyridin-2-amine]
8.32 | CN[C@@H]1CCN(c2cnnc(NC3CCCCC3)c2)C1 [Example 98, N-Cyclohexyl-5-[(3R)-3-(methylamino)pyrrolidin-1-yl]pyridazin-3-amine]
7.63 | CN[C@@H]1CCN(c2ccnc(NC3CC3)n2)C1 [Example 80, Cyclopropyl-[4-(3R)-(3-methylamino-pyrrolidin-1-yl)-pyrimidin-2-yl]-amine]
7.34 | CNC1CN(c2ccnc(NCC3CCCCC3)n2)C1 [Example 102, N-(Cyclohexylmethyl)-4-[3-(methylamino)azetidin-1-yl]pyrimidin-2-amine]
< 5.00 | Fc1ccc(CNc2cc(N3CCNCC3)cnn2)cc1 [Example 346, N-(4-Fluorobenzyl)-5-piperazin-1-ylpyridazin-3-amine]
6.59 | CN[C@H]1CCN(c2ccnc(NCC3CCCC3)c2)C1 [Example 227, N-(Cyclopentylmethyl)-4-[(3S)-3-(methylamino)pyrrolidin-1-yl]pyridin-2-amine]
5.71 | CN1CCN(c2ccnc(NC[C@]34C[C@H]5C[C@H](C[C@H](C5)C3)C4)c2)CC1 [Example 255, Adamantan-1-ylmethyl-[4-(4-methyl-piperazin-1-yl)-pyridin-2-yl]amine]
6.39 | COCCNc1cc(N2CC[C@@H](N)C2)ccn1 [Example 289, 4-[(3R)-3-Aminopyrrolidin-1-yl]-N-(2-methoxyethyl)pyridin-2-amine]
6.39 | CN[C@H]1CCN(c2ccnc(NC3CC3)c2)C1 [Example 235, N-Cyclopropyl-4-[(3S)-3-(methylamino)pyrrolidin-1-yl]pyridin-2-amine]
6.16 | C[C@@H]1[C@@H](Nc2nccc(N3CCNCC3)n2)C[C@H]2C[C@@H]1C2(C)C [Example 134, 4-Piperazin-1-yl-N-[(1S,2S,3S,5R)-2,6,6-trimethylbicyclo[3.1.1]hept-3-yl]pyrimidin-2-amine]
6.78 | CNC1CN(c2ccnc(NCC3CCC4CC3C4(C)C)n2)C1 (stereo not drawn) [Example 105, N-[(6,6-Dimethylbicyclo[3.1.1]hept-2-yl)methyl]-4-[3-(methylamino)azetidin-1-yl]pyrimidin-2-amine]
6.10 | N[C@@H]1CCN(c2ccnc(NCc3ccccc3)n2)C1 [Example 179, 4-[(3R)-3-Aminopyrrolidin-1-yl]-N-benzylpyrimidin-2-amine]
< 5.00 | Cc1ccc(CNc2cc(N3CC[C@@H](N)C3)cnn2)cc1 [Example 343, 5-[(3R)-3-Aminopyrrolidin-1-yl]-N-(4-methylbenzyl)pyridazin-3-amine]
5.40 | CN[C@H]1CCN(c2cnnc(NCc3ccc(F)cc3)c2)C1 [Example 399, N-(4-Fluorobenzyl)-5-[(3S)-3-(methylamino)pyrrolidin-1-yl]pyridazin-3-amine]
< 5.00 | c1ccc(CNc2cc(N3CCNCC3)ccn2)nc1 [Example 260, 4-Piperazin-1-yl-N-(pyridin-2-ylmethyl)pyridin-2-amine]
5.68 | CC1C(Nc2cc(N3CC[C@H](N)C3)ccn2)C[C@H]2C[C@@H]1C2(C)C (stereo partly drawn) [Example 272, 4-[(3S)-3-Aminopyrrolidin-1-yl]-N-[(1S,5R)-2.6.6-trimethylbicyclo[3.1.1]hept-3-yl]pyridin-2-amine]

SMILES | pKi
C[C@@H](Nc1nccc(N2C[C@H]3CCN[C@H]3C2)n1)C1CCCCC1 [Example 115, N-[(1R)-1-Cyclohexylethyl]-4-[(3aR,6aR)-hexahydropyrrolo[3,4-b]pyrrol-5(1H)-yl]pyrimidin-2-amine] | 6.03
Fc1ccc(CNc2nccc(N3C[C@H]4CCN[C@H]4C3)n2)cc1 [Example 142, N-(4-Fluorobenzyl)-4-[(3aR,6aR)-hexahydropyrrolo[3,4-b]pyrrol-5(1H)-yl]pyrimidin-2-amine] | 5.15
CC(C)(C)CNc1cc(N2C[C@H]3CCN[C@H]3C2)ccn1 [Example 293, N-(2,2-Dimethylpropyl)-4-[(3aR,6aR)-hexahydropyrrolo[3,4-b]pyrrol-5(1H)-yl]pyridin-2-amine] | 7.22
CCCCNc1cc(N2C[C@H]3CCN[C@H]3C2)cnn1 [Example 310, N-Butyl-5-[(3aR,6aR)-hexahydropyrrolo[3,4-b]pyrrol-5(1H)-yl]pyridazin-3-amine] | 6.21
CCCCNc1nccc(N2CCNCC2)n1 [Example 68, Butyl-(4-piperazin-1-yl-pyrimidin-2-yl)-amine] | 7.44
CC(C)(C)CNc1cc(N2CCNCC2)cnn1 [Example 357, N-(2,2-Dimethylpropyl)-5-piperazin-1-ylpyridazin-3-amine] | 5.36
OCCCNc1cc(N2C[C@H]3CCN[C@H]3C2)cnn1 [Example 305, 3-({5-[(3aR,6aR)-Hexahydropyrrolo[3,4-b]pyrrol-5(1H)-yl]pyridazin-3-yl}amino)propan-1-ol] | 5.98

— patent US9732087B2, “Diamino-pyridine, pyrimidine, and pyridazine modulators of the histamine H4 receptor” (JANSSEN PHARMACEUTICA NV, priority 2008, dated 2017)
